From patent US5399570A, “Aspartic acid derivatives, and their use for inhibiting platelete aggregation” (Cassella Aktiengesellschaft, priority 1992, dated 1995)
Read-outs that look alike come from different tables or passages of the source.

What was measured:
[1] = test system: filtered, plasma-free human platelets; test: inhibition of aggregation of filtered human platelets after ADP or thrombin stimulation; assay type: cell-based; details: Platelet
Procedure: (§1) The compounds of the formula I are in particular tested for their inhibiting action in blood platelet aggregation and the adhesion of fibrinogen to blood platelets. The measurement of aggregation and the binding of ^125 I-fibrinogen is carried out on filtered, plasma-free human platelets. Platelet activation is effected by means of ADP or thrombin.
As a functional test, the inhibition of aggregation of filtered human platelets is measured after ADP or thrombin stimulation by the compounds according to the invention. The IC50 value of inhibition is given.

[2] = biological target: T1, glycoprotein IIb/IIIa localised on blood platelets (fibrinogen receptor) (Homo sapiens, UniProt P05106+P08514); test: inhibition of binding of ^125 I-fibrinogen to human platelets after stimulation with ADP; details: after stimulation with ADP (10 μM)
T1 construct: carried out on filtered, plasma-free human platelets; endogenous in cells; host or cells: filtered, plasma-free human platelets, stimulated with ADP (10 μM)
T1 sequence (P08514 32-887 limits assumed): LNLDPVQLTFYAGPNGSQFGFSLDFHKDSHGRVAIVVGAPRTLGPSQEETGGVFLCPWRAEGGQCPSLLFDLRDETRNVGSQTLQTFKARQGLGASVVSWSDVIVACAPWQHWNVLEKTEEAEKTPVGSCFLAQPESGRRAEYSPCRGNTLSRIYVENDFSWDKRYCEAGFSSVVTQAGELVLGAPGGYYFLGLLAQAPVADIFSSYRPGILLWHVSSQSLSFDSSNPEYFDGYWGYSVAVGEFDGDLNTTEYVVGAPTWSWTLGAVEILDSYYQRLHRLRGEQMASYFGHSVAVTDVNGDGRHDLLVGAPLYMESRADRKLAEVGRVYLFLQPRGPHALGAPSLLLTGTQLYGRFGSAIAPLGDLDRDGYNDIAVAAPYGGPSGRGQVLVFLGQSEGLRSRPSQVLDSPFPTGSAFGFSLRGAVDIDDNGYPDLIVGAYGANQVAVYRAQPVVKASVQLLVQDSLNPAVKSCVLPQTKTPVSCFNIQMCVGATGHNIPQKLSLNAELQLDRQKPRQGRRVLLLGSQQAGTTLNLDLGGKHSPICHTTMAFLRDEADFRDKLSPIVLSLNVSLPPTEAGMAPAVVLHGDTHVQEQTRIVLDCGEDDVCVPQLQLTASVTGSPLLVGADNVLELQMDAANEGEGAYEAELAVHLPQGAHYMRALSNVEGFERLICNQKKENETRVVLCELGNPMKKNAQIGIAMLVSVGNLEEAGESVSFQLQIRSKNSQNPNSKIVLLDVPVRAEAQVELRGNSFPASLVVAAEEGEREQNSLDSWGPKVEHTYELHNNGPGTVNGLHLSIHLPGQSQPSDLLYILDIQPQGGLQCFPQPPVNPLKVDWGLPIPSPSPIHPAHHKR
T1 sequence (P05106 27-788): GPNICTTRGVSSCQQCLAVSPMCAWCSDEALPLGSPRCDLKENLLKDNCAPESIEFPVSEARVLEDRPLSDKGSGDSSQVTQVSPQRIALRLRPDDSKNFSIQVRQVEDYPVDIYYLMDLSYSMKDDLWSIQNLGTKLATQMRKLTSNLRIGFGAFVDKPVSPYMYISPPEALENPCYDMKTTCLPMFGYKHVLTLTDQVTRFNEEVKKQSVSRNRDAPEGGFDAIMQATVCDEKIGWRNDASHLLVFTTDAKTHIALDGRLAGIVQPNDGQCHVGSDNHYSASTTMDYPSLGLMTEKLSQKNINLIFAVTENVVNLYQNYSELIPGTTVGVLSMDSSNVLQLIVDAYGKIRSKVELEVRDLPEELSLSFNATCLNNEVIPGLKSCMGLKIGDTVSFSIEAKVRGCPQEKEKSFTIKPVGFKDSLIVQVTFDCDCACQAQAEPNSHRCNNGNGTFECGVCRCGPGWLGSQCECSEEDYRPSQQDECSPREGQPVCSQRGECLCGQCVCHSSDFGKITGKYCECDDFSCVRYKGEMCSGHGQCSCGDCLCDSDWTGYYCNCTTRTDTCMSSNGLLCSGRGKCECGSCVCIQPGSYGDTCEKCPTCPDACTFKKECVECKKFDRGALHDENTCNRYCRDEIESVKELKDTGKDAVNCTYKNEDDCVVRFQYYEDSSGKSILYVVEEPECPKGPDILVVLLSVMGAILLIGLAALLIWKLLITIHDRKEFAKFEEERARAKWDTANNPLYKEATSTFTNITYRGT
Source text: Integrins are cell membrane glycoproteins and mediate cell adhesion by interaction with a large number of extracelluar proteins, such as fibronectin, laminin, fibrinogen, collagen, vitronectin, and yon Willebrand factor or with other cell membrane proteins, such as, for example, ICAM-1. An important receptor of the integrin family is glycoprotein IIb/IIIa localised on blood platelets (fibrinogen receptor)--a key protein in platelet-platelet interaction and thrombus formation. A central fragment in the receptor recognition sequence of these proteins is the tripeptide Arg--Gly--Asp (E. Ruoslahti and M. D. Pierschbacher, Science 238 (1987) 491-497; D. R. Phillips, I. F. Charo, L. V. Parise and L. A. Fitzgerald, Blood 71 (1988) 831-843).
as §1
The Ki value of the inhibition of binding of ^125 I-fibrinogen after stimulation with ADP (10 μm) is given.
Reference: J. S. Bennett and G. Vilaire, J. Clin. Invest. 64, (1979), 1393-1401.

[3] = ADP stimulation, read-out: Inhibition of platelet aggregation ADP, IC50 value of inhibition
[4] = thrombin stimulation, read-out: Inhibition of platelet aggregation Thrombin, IC50 value of inhibition

SMILES	IC50 [1, 3] [µM]	IC50 [1, 4] [µM]	Ki [2] [µM]
CC(C)[C@H](NC(=O)[C@H](CC(=O)O)NC(=O)c1ccc(CC2CCN(C(=N)N)CC2)cc1)C(=O)O [Example 1, p-(4-(N-Amidinopiperidinyl)methyl)benzoyl-L-aspartyl-L-valine]	8	2	
N=C(N)N1CCC(Cc2ccc(C(=O)N[C@@H](CC(=O)O)C(=O)NC3CCCCC3)cc2)CC1 [Example 2, p-(4-(N-Amidinopiperidinyl)methyl)benzoyl-L-aspartylcyclohexylamide]	15	10	
N=C(N)N1CCC(Cc2ccc(C(=O)N[C@@H](CC(=O)O)C(=O)NCCC(c3ccccc3)c3ccccc3)cc2)CC1 [Example 3]	15	5	
CC(C)NC(=O)[C@H](CC(=O)O)NC(=O)c1ccc(CC2CCN(C(=N)N)CC2)cc1 [Example 4]	20	15	10

The remaining lines, values ahead:

IC50 [1, 3] [µM]	IC50 [1, 4] [µM]	Ki [2] [µM]	SMILES
2	2	1.8	CN(CC(=O)N[C@@H](CC(=O)O)C(=O)NCCC(c1ccccc1)c1ccccc1)C(=O)c1ccc(CNC(=N)N)cc1 [Example 9, p-Guanidinomethylbenzoylsarcosyl-L-aspartyl-3,3-diphenylpropylamide]
8	4	3.1	CN(CC(=O)N[C@@H](CC(=O)O)C(=O)NC(c1ccccc1)c1ccccc1)C(=O)[C@H]1CC[C@H](CNC(=N)N)CC1 [Example 12, trans-4 -Guanidinomethylcyclohexanecarboxylsarcosyl-L-aspartylbenzhydrylamide]
4.5	1.5	0.8	CC(C)[C@H](NC(=O)[C@H](CC(=O)O)NC(=O)c1ccc(OC2CCN(C(=N)N)CC2)cc1)C(=O)O [Example 14, p-(4-N-Amidinopiperidinyloxy)benzoyl-L-aspartyl-L-valine]
